Data taken from ChEMBL document CHEMBL1201862, “PubChem BioAssay data set” (2004).
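Five compound concentrations were applied to cells in 96-well plates for 48 hours; endpoints were derived by simple linear interpolation of the resulting dose-response curve. GI50 is the concentration that inhibits growth by half.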 Calls of active or inactive are those of the source. No stated cut-off is given here; in the data, active = GI50 up to about 1.1 µM and inactive = higher. *1 amine or outer side, *2 acyl side, *3 side chain or, on linkers, in order; H or OH if unused. Where a SMILES comes first, the peptide text is derived from it. Bridges are numbered along the chain shown (N, C = ends). Roman numbers before positions name the chains, in order. [ ]: non-standard residue; d: D form. Actinocin(1to9) = Cc1c2oc3c(C)ccc(C(=O)[*:2])c3nc-2c(C(=O)[*:1])c(N)c1=O; NMeV = CN[CH](C(=O)O)C(C)C; Sar = CNCC(=O)O

Columns and labels:
Experiment in all cases: inhibition of tumour cell growth, NCI panel, 48 h
LOX IMVI = system: LOX IMVI
TK-10 = system: TK-10
SK-MEL-2 = system: SK-MEL-2
UO-31 = system: UO-31
K562 = system: K562
COLO 205 = system: COLO 205
EKVX = system: EKVX
NCI-H460 = system: NCI-H460
ACHN = system: ACHN
786-0 = system: 786-0
SK-MEL-28 = system: SK-MEL-28
UACC-257 = system: UACC-257
HT-29 = system: HT-29
LXFL 529 = system: LXFL 529
NCI-H522 = system: NCI-H522
SK-OV-3 = system: SK-OV-3
NCI-H226 = system: NCI-H226
MCF7 = system: MCF7
MDA-N = system: MDA-N
MDA-MB-231 = system: MDA-MB-231

Structure (SMILES)	GI50 (LOX IMVI)	GI50 (TK-10)	GI50 (SK-MEL-2)	GI50 (UO-31)	GI50 (K562)	GI50 (COLO 205)	GI50 (EKVX)	GI50 (NCI-H460)	GI50 (ACHN)	GI50 (786-0)	GI50 (SK-MEL-28)	GI50 (UACC-257)	GI50 (HT-29)	GI50 (LXFL 529)	GI50 (NCI-H522)	GI50 (SK-OV-3)	GI50 (NCI-H226)	GI50 (MCF7)	GI50 (MDA-N)	GI50 (MDA-MB-231)
CCOC(=O)c1c2ccc(/C=C/c3ccccn3)ccc-2c(C(=O)OCC)c1N	> 100 µM (inactive)	> 100 µM (inactive)	> 100 µM (inactive)	> 100 µM (inactive)	> 100 µM (inactive)	> 100 µM (inactive)	> 100 µM (inactive)	89.1 µM (inactive)	73.5 µM (inactive)	> 100 µM (inactive)	0.361 µM (active)	> 100 µM (inactive)	> 100 µM (inactive)	72.6 µM (inactive)	91 µM (inactive)	> 100 µM (inactive)	> 100 µM (inactive)	–	–	–
CC[P+](C)(C)c1ccccc1	> 100 µM (inactive)	> 100 µM (inactive)	> 100 µM (inactive)	> 100 µM (inactive)	> 100 µM (inactive)	> 100 µM (inactive)	> 100 µM (inactive)	> 100 µM (inactive)	> 100 µM (inactive)	> 100 µM (inactive)	> 100 µM (inactive)	> 100 µM (inactive)	> 100 µM (inactive)	> 100 µM (inactive)	–	> 100 µM (inactive)	–	–	–	–
CCOC(=O)c1cc(-c2ccc(-c3cc(C(=O)OCC)c(C#N)c(N)c3C#N)cc2)c(C#N)c(N)c1C#N	> 100 µM (inactive)	> 100 µM (inactive)	> 100 µM (inactive)	> 100 µM (inactive)	> 100 µM (inactive)	> 100 µM (inactive)	> 100 µM (inactive)	> 100 µM (inactive)	> 100 µM (inactive)	> 100 µM (inactive)	> 100 µM (inactive)	> 100 µM (inactive)	> 100 µM (inactive)	> 100 µM (inactive)	> 100 µM (inactive)	> 100 µM (inactive)	> 100 µM (inactive)	–	–	–
O=C(O/N=C1/CCC/C1=C\c1ccccc1)c1ccccc1	61.8 µM (inactive)	> 100 µM (inactive)	> 100 µM (inactive)	–	38.7 µM (inactive)	> 100 µM (inactive)	29.8 µM (inactive)	> 10 µM (inactive)	> 100 µM (inactive)	> 100 µM (inactive)	> 100 µM (inactive)	> 100 µM (inactive)	40.7 µM (inactive)	28.9 µM (inactive)	53 µM (inactive)	> 100 µM (inactive)	> 100 µM (inactive)	–	–	–
NC(=S)N/N=C/C(O[C@@H](/C=N/NC(N)=S)CO)n1cnc2c(N)ncnc21 (stereo partly drawn)	> 100 µM (inactive)	> 100 µM (inactive)	–	> 100 µM (inactive)	> 54.7 µM (inactive)	> 49.8 µM (inactive)	> 100 µM (inactive)	> 80.5 µM (inactive)	> 100 µM (inactive)	> 58.2 µM (inactive)	> 100 µM (inactive)	> 100 µM (inactive)	> 62.5 µM (inactive)	> 78.2 µM (inactive)	> 47.9 µM (inactive)	> 100 µM (inactive)	> 100 µM (inactive)	–	–	–
CCC12CCCN(Cc3ccccc3)C1c1c(n(C)c3ccccc13)CC2 (stereo not drawn)	236 µM (inactive)	> 253 µM (inactive)	> 253 µM (inactive)	–	163 µM (inactive)	164 µM (inactive)	> 253 µM (inactive)	> 253 µM (inactive)	246 µM (inactive)	> 253 µM (inactive)	> 253 µM (inactive)	107 µM (inactive)	167 µM (inactive)	167 µM (inactive)	61.1 µM (inactive)	> 253 µM (inactive)	> 253 µM (inactive)	–	–	–
C/C(CC(=O)Nc1ccccc1[N+](=O)[O-])=N\NC(N)=O	> 100 µM (inactive)	> 100 µM (inactive)	> 100 µM (inactive)	> 100 µM (inactive)	> 100 µM (inactive)	> 100 µM (inactive)	> 100 µM (inactive)	> 100 µM (inactive)	> 100 µM (inactive)	> 100 µM (inactive)	> 100 µM (inactive)	> 100 µM (inactive)	> 100 µM (inactive)	> 100 µM (inactive)	> 100 µM (inactive)	> 100 µM (inactive)	> 100 µM (inactive)	–	–	–
CC(C)OC(=O)C1=C(O)c2ccccc2S(=O)(=O)N1	> 100 µM (inactive)	> 100 µM (inactive)	> 100 µM (inactive)	–	> 100 µM (inactive)	> 100 µM (inactive)	> 100 µM (inactive)	> 100 µM (inactive)	> 100 µM (inactive)	> 100 µM (inactive)	> 100 µM (inactive)	> 100 µM (inactive)	> 100 µM (inactive)	> 100 µM (inactive)	> 100 µM (inactive)	> 100 µM (inactive)	> 100 µM (inactive)	–	–	–
COc1cc([C@@H]2c3cc4c(cc3[C@@H](NCc3ccccc3)C3COC(=O)[C@@H]32)OCO4)cc(OC)c1O (stereo partly drawn)	5.25 µM (inactive)	26 µM (inactive)	23.4 µM (inactive)	7.08 µM (inactive)	16.6 µM (inactive)	27.2 µM (inactive)	13.1 µM (inactive)	0.547 µM (active)	1.17 µM (inactive)	3.47 µM (inactive)	25 µM (inactive)	27.1 µM (inactive)	16.4 µM (inactive)	19.3 µM (inactive)	–	6.52 µM (inactive)	3.46 µM (inactive)	–	–	–
C#CCN(Cc1ccc2nc(-c3ccccc3)c(Cl)nc2c1)c1ccc(Cl)c(Cl)c1	> 100 µM (inactive)	> 100 µM (inactive)	> 100 µM (inactive)	> 100 µM (inactive)	> 100 µM (inactive)	> 100 µM (inactive)	> 100 µM (inactive)	> 100 µM (inactive)	> 100 µM (inactive)	> 100 µM (inactive)	> 100 µM (inactive)	> 100 µM (inactive)	> 100 µM (inactive)	> 100 µM (inactive)	> 100 µM (inactive)	> 100 µM (inactive)	–	–	–	–
O=C(NC1C(=O)NNC1c1cccc([N+](=O)[O-])c1)c1ccccc1 (stereo not drawn)	> 100 µM (inactive)	> 100 µM (inactive)	> 100 µM (inactive)	> 100 µM (inactive)	–	> 100 µM (inactive)	> 100 µM (inactive)	> 100 µM (inactive)	> 100 µM (inactive)	> 100 µM (inactive)	> 100 µM (inactive)	> 100 µM (inactive)	> 100 µM (inactive)	> 100 µM (inactive)	–	–	> 100 µM (inactive)	–	–	–
O=C(CC(=O)c1cccc2ccccc12)C(=O)Nc1ccc(Cl)cc1	> 100 µM (inactive)	> 100 µM (inactive)	–	> 100 µM (inactive)	> 100 µM (inactive)	> 100 µM (inactive)	> 100 µM (inactive)	> 100 µM (inactive)	> 100 µM (inactive)	> 100 µM (inactive)	–	> 100 µM (inactive)	> 100 µM (inactive)	> 100 µM (inactive)	> 100 µM (inactive)	> 100 µM (inactive)	> 100 µM (inactive)	–	–	–
CC(N)CC(=O)O (stereo not drawn)	–	> 5000 µM (inactive)	> 5000 µM (inactive)	> 5000 µM (inactive)	> 5000 µM (inactive)	> 5000 µM (inactive)	> 5000 µM (inactive)	> 5000 µM (inactive)	> 5000 µM (inactive)	> 5000 µM (inactive)	> 5000 µM (inactive)	> 5000 µM (inactive)	> 5000 µM (inactive)	> 5000 µM (inactive)	> 5000 µM (inactive)	> 5000 µM (inactive)	> 5000 µM (inactive)	–	–	–
c1ccc(NC[Si]23OCCN(CCO2)CCO3)cc1	–	> 100 µM (inactive)	> 100 µM (inactive)	> 100 µM (inactive)	> 100 µM (inactive)	> 100 µM (inactive)	> 100 µM (inactive)	> 100 µM (inactive)	> 100 µM (inactive)	> 100 µM (inactive)	> 100 µM (inactive)	> 100 µM (inactive)	> 100 µM (inactive)	> 100 µM (inactive)	> 100 µM (inactive)	> 100 µM (inactive)	> 100 µM (inactive)	–	–	–
CO[C@H](C(=O)O[C@H]1C(=O)N2CCC3CCC1C32C)c1ccccc1 (stereo partly drawn)	> 100 µM (inactive)	–	> 100 µM (inactive)	> 100 µM (inactive)	> 100 µM (inactive)	> 100 µM (inactive)	> 100 µM (inactive)	> 100 µM (inactive)	> 100 µM (inactive)	> 100 µM (inactive)	> 100 µM (inactive)	> 100 µM (inactive)	> 100 µM (inactive)	> 100 µM (inactive)	> 100 µM (inactive)	> 100 µM (inactive)	> 100 µM (inactive)	–	–	–
COc1ccc(CC2NC(=O)C(NC(=O)c3c4nc5c(C(=O)NC6C(=O)NC(Cc7ccc(OC)cc7)C(=O)N7CCCC7C(=O)N(C)CC(=O)N(C)C(C(C)C)C(=O)OC6C)ccc(C)c5oc-4c(C)c(=O)c3N)C(C)OC(=O)C(C(C)C)N(C)C(=O)CN(C)C(=O)C3CCCN3C2=O)cc1 (stereo not drawn) (I: TY(Me)P[Sar][NMeV] / II: TY(Me)P[Sar][NMeV]; ester I:1-I:C, II:1-II:C; linker I:N-II:N via Actinocin(1to9); configuration not given here)	< 0.001 µM (active)	0.0351 µM (active)	0.015 µM (active)	0.00822 µM (active)	< 0.001 µM (active)	< 0.001 µM (active)	0.164 µM (active)	< 0.001 µM (active)	< 0.001 µM (active)	0.0141 µM (active)	< 0.001 µM (active)	< 0.001 µM (active)	< 0.001 µM (active)	–	< 0.001 µM (active)	0.0116 µM (active)	0.0135 µM (active)	< 0.001 µM (active)	< 0.001 µM (active)	0.0371 µM (active)
